From patent US5439939A, “Pharmaceutical compositions and methods using isobutyramide for treating betaglobin disorders” (Children's Hospital Medical Center of Northern California, priority 1992, dated 1995)

How the values were obtained:
[1] = system: gammaglobin; experiment: Effect of isobutyramide on percentage of gammaglobin to total gamma plus betaglobin in anemic baboons in vivo; parameters: species or system baboon (Papio anubis)
Method: (§1) Adult, male baboons (Papio anubis) were used as experimental animals. Three baboons were rendered anemic by daily phlebotomy for at least about 30 days, and maintained at hematocrit values of about 22% by daily phlebotomy. Each anemic baboon was treated with isobutyramide. One baboon (no. 767) received isobutyramide by oral formulation of 150 mg isobutyramide per ml of distilled sterile water administered through a naso-gastric tube three times per week for three weeks. This baboon received isobutyramide at a dosage of 600 mg per kg of body weight. Another baboon (no. 224) received isobutyramide by parenteral formulation of 150 mg isobutyramide per ml of distilled sterile water administered by intravenous infusion over a 30 minute period one time per day for three weeks. This baboon received isobutyramide at a dosage of 500 mg per kg of body weight. Another baboon (no. 207) received isobutyramide by parenteral formulation of 150 mg isobutyramide per ml of distilled sterile water administered by intravenous infusion over a 30 minute period one time per day for three days. This baboon received isobutyramide at a dosage of 500 mg per kg of body weight. The experiment was terminated with this baboon after three days due to an infection. Blood samples were taken throughout the course of treatment. Samples were assayed to determine the percentage of gammaglobin to total gamma-globin and betaglobin (Table 1) and the percentage of total reticulocytes containing gammaglobin, sometimes called "F-retics" (Table 2). The assay to measure the percentage of gammaglobin to total gamma-globin and betaglobin was by the method described in Perrine, S. P., et al., Delay In The Fetal Globin Switch In Infants Of Diabetic Mothers, New Eng. J. Med. vol.312, pp.334-338 (1985). The assay to measure the percentage of total reticulocytes containing gammaglobin was performed by the method described in Rogers, G., et al., Hematologic Response of Patients with Sickle Cell Disease To Treatment with Hydroxyurea, New Eng. J. Med., vol.322, pp.1037-1045 (1990).

[2] = system: reticulocytes containing gammaglobin (F-retics); experiment: Effect of isobutyramide on percentage of F-retics to total reticulocytes in anemic baboons in vivo; parameters: species or system baboon (Papio anubis)
Method: as §1

[3] = administered in therapeutically effective amounts; cited from earlier work
[4] = Plasma levels of isobutyramide after administration; assay type: in vivo, baboon and human
Method: Adult, male baboons (Papio anubis) were used as experimental animals. Three baboons were rendered anemic by daily phlebotomy for at least about 30 days, and maintained at hematocrit values of about 22% by daily phlebotomy. Each anemic baboon was treated with isobutyramide. One baboon (no. 767) received isobutyramide by oral formulation of 150 mg isobutyramide per ml of distilled sterile water administered through a naso-gastric tube three times per week for three weeks. This baboon received isobutyramide at a dosage of 600 mg per kg of body weight. Another baboon (no. 224) received isobutyramide by parenteral formulation of 150 mg isobutyramide per ml of distilled sterile water administered by intravenous infusion over a 30 minute period one time per day for three weeks. This baboon received isobutyramide at a dosage of 500 mg per kg of body weight. […]
Isobutyramide was administered orally to the baboon (no.767) and parenterally to another baboon (no.224) as described in Example 3. The plasma concentrations of the isobutyramide at various times after a single oral dose to those baboons are shown in FIG. 1 (measured by gas liquid chromatography and expressed in millimoles per liter ("mM")). […]

[5] = standard assays; cited from earlier work
[6] = species not given; cited from earlier work
[7] = system: erythroid progenitors from peripheral blood; experiment: Effect of isobutyramide in vitro on percentage of gammaglobin to total gamma plus betaglobin in cultured erythroid progenitors; assay type: cell-based, human; details: 0.2 mM, about 14 days
Method: Cultures of erythroid progenitors from peripheral blood of patients having a betaglobin disorder and normal subjects were cultured for about 14 days in presence of 0.2 millimoles per liter ("mM") isobutyramide and the percentages of gammaglobin to total gamma plus betaglobin were assayed substantially according to the methods described in Perrine, S. P. et al., Sodium Butyrate Enhances Fetal Globin Gene Expression in Erythroid Progenitors of Patients With Hb SS and Beta Thalassemia, Blood, vol.74, pp.454-459 (1989). The patients with sickle-cell anemia are identified as "SS" and with beta-thalassemia as "beta-thal." Ages are specified in years.

CC(C)C(N)=O [isobutyramide, Isobutyramide]
production of fetal hemoglobin in vivo ([1]; anemic baboons, Tables 1 and 2): significantly stimulated the production of fetal hemoglobin
Percentage of gammaglobin to total gamma plus betaglobin, treatment (highest achieved) ([1]; baboon 207, 500 mg per kg i.v. infusion over 30 min, once per day for three days, pre-treatment 0): 9%
Percentage of gammaglobin to total gamma plus betaglobin, treatment (highest achieved) ([1]; baboon 224, 500 mg per kg i.v. infusion over 30 min, once per day for three weeks, pre-treatment 2): 11%
Percentage of gammaglobin to total gamma plus betaglobin, treatment (highest achieved) ([1]; baboon 767, 600 mg per kg oral (naso-gastric tube), three times per week for three weeks, pre-treatment 3): 12%
Percentage of F-retics to total reticulocytes, treatment ([2]; baboon 207, 500 mg per kg i.v. infusion over 30 min, once per day for three days, pre-treatment 3): 15%
Percentage of F-retics to total reticulocytes, treatment ([2]; baboon 224, 500 mg per kg i.v. infusion over 30 min, once per day for three weeks, pre-treatment 16): 27%
Percentage of F-retics to total reticulocytes, treatment ([2]; baboon 767, 600 mg per kg oral (naso-gastric tube), three times per week for three weeks, pre-treatment 13): 17%
toxicity [3]: substantially non-toxic
plasma levels ([4]; oral and parenteral administration): sufficient to yield therapeutic effects
half-life ([4]; plasma, after oral or parenteral administration, species not specified (baboons and humans)): 7.6 to 10.5 h
mutagenicity [5]: not mutagenic
acute intravenous LD 50 [6]: about 3 g per kilogram
production of fetal hemoglobin in culture ([7]; Table 3): significantly stimulated the production of fetal hemoglobin in culture
Percentage of gammaglobin to total gamma plus betaglobin, treatment ([7]; SS (sickle-cell anemia), age 10-11, pre-treatment 22): 40%
Percentage of gammaglobin to total gamma plus betaglobin, treatment ([7]; SS (sickle-cell anemia), pre-treatment 17): 96%
Percentage of gammaglobin to total gamma plus betaglobin, treatment ([7]; SS (sickle-cell anemia), pre-treatment 42): 55%
Percentage of gammaglobin to total gamma plus betaglobin, treatment ([7]; SS (sickle-cell anemia), pre-treatment 70): 78%
Percentage of gammaglobin to total gamma plus betaglobin, treatment ([7]; beta-thal, newborn, pre-treatment 40): 50%
Percentage of gammaglobin to total gamma plus betaglobin, treatment ([7]; beta-thal, pre-treatment 65): 98%
Percentage of gammaglobin to total gamma plus betaglobin, treatment ([7]; beta-thal, pre-treatment 70): 64%
Percentage of gammaglobin to total gamma plus betaglobin, treatment ([7]; normal, newborn, pre-treatment 5): 45%
Percentage of gammaglobin to total gamma plus betaglobin, treatment ([7]; normal, newborn, pre-treatment 20): 26%
Percentage of gammaglobin to total gamma plus betaglobin, treatment ([7]; normal, newborn, pre-treatment 69): 72%
